These results are taken from patent publication US11384097B2, “Tetrahydroisoquinoline derivative, preparation method therefor and use thereof” (ZHEJIANG HISUN PHARMACEUTICAL CO., LTD., priority 2018, dated 2022).

Series [1] deals with T1, Human AT2R (Homo sapiens, UniProt P50052).
T1 construct: Terbium (Tb) donor label on the receptor; From my own knowledge, the Tag-lite format usually uses an N-terminal SNAP-tag fusion labelled with Lumi4-Tb; expressed in transfected cells
T1 sequence (P50052 1-363): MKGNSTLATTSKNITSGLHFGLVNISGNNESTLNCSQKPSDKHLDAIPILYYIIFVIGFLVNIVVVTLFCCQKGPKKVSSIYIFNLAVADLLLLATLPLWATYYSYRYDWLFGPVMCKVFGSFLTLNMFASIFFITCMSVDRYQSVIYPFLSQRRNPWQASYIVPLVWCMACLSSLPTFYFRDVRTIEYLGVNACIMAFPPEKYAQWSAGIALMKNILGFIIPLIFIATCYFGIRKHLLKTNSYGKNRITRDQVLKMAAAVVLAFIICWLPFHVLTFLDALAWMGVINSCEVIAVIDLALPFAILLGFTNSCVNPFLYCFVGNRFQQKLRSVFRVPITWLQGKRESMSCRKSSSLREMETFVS
Put plainly: Antagonistic activity assay on human AT2R ligand binding (Tag-lite HTRF, Tb-labeled-AT2R cells). Particulars: AT2 ligand binding, red agonist fluorescent ligand.
Procedure: Antagonistic Activity Assay of the Compound of the Present Disclosure on Human AT2R Ligand Binding
According to standard methods, all compounds were dissolved in dimethyl sulfoxide and prepared as 10 mM stock solutions.
(3) Each of the diluted compound in step (2) was transferred to a working plate (3657, Corning) at 160 nL/well, at 200 g, at room temperature for 1 minute;
(4) 40 μl 1×TLB was added to the above working plate, and it was centrifuged at 200 g (centrifugal force) at room temperature for 1 minute, shook on a shaker for 15 minutes to mix well, and centrifuged at 200 g (working concentration of the compound was 4×) at room temperature for 1 minute for later use;
(6) 5 mL 1×TLB was taken in a 15 mL centrifuge tube;
(7) a Tb-labeled-AT2R cells were frozen and thawed in a 37° C. water bath until the ice was completely melted (1-2 minutes);
(8) The frozen and thawed cells were rapidly transferred to the 1×TLB in step (6), and the resulting solution was mixed gently, and then centrifuged at 1200 g at room temperature for 5 minutes;
After being mixed well, the resulting mixture was placed at room temperature for late use;
(11) The reaction plate was centrifuged at 200 g at room temperature for 1 minute, and stood for 1 hour at room temperature of 25° C., and then it was centrifuged at 200 g at room temperature for 1 minute. The data was collected using Envision HTRF microplate reader, and IC50 was calculated using a nonlinear fitting formula.

Series [2] can be described thus: Pharmacokinetic study in SD rats (intravenous injection and intragastric administration). In kind it is in vivo, Sprague Dawley (SD) rats. The conditions noted are these: for bioavailability: Oral (10 mg/kg) vs Injection (1 mg/kg), read-out: Bioavailability F(%); for half-life: read-out: Half-life T1/2 (converted); for AUC(0-inf): read-out: area under curve AUC0-∞; for MRT: read-out: residence time MRT. Here is the method:
Test Example 3. Oral Pharmacokinetic Studies of the Compounds of the Present Disclosure in SD Rats
SD rats were used as the experimental animal. The rats were intravenously injected or intragastrically administered with the compounds of the present disclosure, and the drug concentrations in plasma at different times were tested by LC/MS/MS methods, so as to research the pharmacokinetic characteristics of compounds of present disclosure in rats.
Forty-eight healthy adult Sprague Dawley (SD) male rats were purchased from Weitong Lihua Laboratory Animal Technology Co., Ltd., production license number: 11400700271077.
48 healthy adult male SD rats were fasted overnight and administered via tail vein injection (at a dosage of 1 mg/kg) and intragastrically administered (at a dosage of 10 mg/kg), respectively. The rats were fed 4 h after the administration.
About 0.2 mL of blood was collected from the jugular vein before administering and at 0.083 hours, 0.25 hours, 0.5 hours, 1 hour, 2 hours, 4 hours, 8 hours, 12 hours, and 24 hours after administering, and heparin sodium was used for anticoagulation. Blood samples were collected and placed on ice, and plasma was separated by centrifugation (centrifugation conditions: 1500 g, 10 min). The collected plasma was stored at −40° C.-20° C. before analysis.
10 μL of plasma sample was taken and 400 μL of acetonitrile (containing internal standard working solution, comprising 5 ng/mL verapamil and 50 ng/mL glibenclamide) was added. The resulting mixture was vortexed for 10 minutes, and centrifuged at 3700 rpm for 10 minutes. 70 μL of the supernatant was taken, and […] of water was added. The resulting mixture was vortexed for 10 minutes, and 2 μL of the mixture was transferred to the LC-MS/MS for sample analysis.

The nature of series [3]: Metabolic stability in rat liver microsomes. The series is classed as in vitro ADME. Particulars: rat liver microsomes 0.5 mg/mL, 1 μM compound, NADPH 1 mM; read-out: Half-life/(T1/2, min). As for the experimental part:
Test Example 2. Study on the Metabolic Stability of the Compound of the Present Disclosure in Rat Liver Microsomes
The purpose of this experiment is to study the metabolic stability of the compounds of the present disclosure in rat liver microsomes.
The compounds were incubated with rat liver microsomes and coenzyme NADPH was added to initiate the reaction. At 0, 5, 15, 30 and 60 minutes, 20 μL of incubation solution was taken out and transferred to 200 μL of acetonitrile containing internal standard to stop the reaction. After protein precipitation, the resulting mixture was centrifuged at 3,700 rpm for 10 minutes, and the supernatant was taken. The supernatant was diluted 1:1 with water and analyzed by LC-MS/MS method. According to the elimination half-life of the test compound in the incubation system, the in vitro intrinsic clearance rate was calculated. Midazolam was used as the internal reference compound and all incubations were performed in duplicate in parallel.
The peak area ratio analyte/internal standard (Aanalyte/AIS) is obtained by the instrument, and the remaining percentage (% Control) is calculated from the ratio Aanalyte/AIS in the non-zero time point sample to the zero time point sample. Ln (% Control) against incubation time is plotted and a linear fit was performed.

[4] abbreviates: male, Sprague-Dawley, rat, plasma.
Where [5] appears, read: male, Sprague-Dawley, rat, plasma, Oral (10 mg/kg).
[6] abbreviates: male, Sprague-Dawley, rat, plasma, iv, Injection (1 mg/kg), tail vein.

Like-named read-outs stand apart in the source and are kept apart here.

Molecule `COc1ccc(COc2c(OC)ccc3c2C[C@@H](C(=O)O)N(c2nc4ccc(F)cc4o2)C3)nc1` [Example 36, (S)-2-(6-fluorobenzo[d]oxazol-2-yl)-6-methoxy-5-((5-methoxypyridin-2-yl)methoxy)-1,2,3,4-tetrahydroisoquinoline-3-carboxylic acid] returned a 50% inhibitory concentration (IC50) in series [1] of 10 nM. In series [2] (setting [4]), the bioavailability was found to be 53.7%. Besides, in series [2] (setting [5]), the half-life was 3.8 ± 1 h, the AUC(0-inf) is 24700 ± 9400 ng·h/mL and the MRT came out at 5.4 ± 1.3 h. In series [2] (male, Sprague-Dawley, rat, plasma, Oral (10 mg/kg), read-out: blood concentration Cmax), the Cmax is 4740 ± 662 ng/mL. In series [2] (setting [6]), the half-life is 4.8 ± 2.6 h, the AUC(0-inf) worked out at 4600 ± 240 ng·h/mL and the MRT was determined as 2.3 ± 0.6 h. In series [3], the half-life at 1 µM amounted to 768 min.

Molecule `COc1ccc2c(c1OCc1ccccc1)C[C@@H](C(=O)O)N(c1nc3ccc(C#N)cc3o1)C2` [Example 15, (S)-5-(Benzyloxy)-2-(6-cyanobenzo[d]oxazol-2-yl)-6-methoxy-1,2,3,4-tetrahydroisoquinoline-3-carboxylic acid] showed an IC50 in series [1] of 36 nM. Besides, in series [2] (Injection (1 mg/kg), tail vein), the “Half-life T1/2” value stood at 4.2 ± 1.2 h. Further, in series [2] (setting [4]), the bioavailability stood at 47.3%. Further, in series [2] (setting [5]), the half-life is 4.7 ± 1.3 h, the AUC(0-inf) is 45400 ± 11900 ng·h/mL and the MRT amounted to 6.3 ± 1.1 h. Moreover, in series [2] (setting [6]), the AUC(0-inf) was 9590 ± 579 ng·h/mL and the MRT was 2 ± 0.6 h. Further, the half-life at 1 µM in series [3] was determined as 317 min.

The molecule `COc1ccc(COc2c(OC)ccc3c2C[C@@H](C(=O)O)N(c2nc4ccc(F)cc4o2)C3)cc1` [Example 30, (S)-2-(6-fluorobenzo[d]oxazol-2-yl)-6-methoxy-5-((4-methoxybenzyl)oxy)-1,2,3,4-tetrahydroisoquinoline-3-carboxylic acid] displayed an IC50 in series [1] of 4 nM. For the same molecule, the “Half-life T1/2” value in series [2] (Injection (1 mg/kg), tail vein) was 2.4 ± 0.8 h. The bioavailability in series [2] (setting [4]) is 22.1%. Besides, in series [2] (setting [5]), the half-life was 3.3 ± 0.5 h, the AUC(0-inf) came out at 7130 ± 1630 ng·h/mL and the MRT was determined as 3.6 ± 0.4 h. For the same molecule, in series [2] (setting [6]), the AUC(0-inf) was 3230 ± 659 ng·h/mL and the MRT amounted to 1.2 ± 0.4 h. Moreover, the half-life at 1 µM in series [3] was found to be 251 min.

Molecule `CCS(=O)(=O)NC(=O)[C@@H]1Cc2c(ccc(OC)c2COc2ccccc2)CN1c1nc2ccc(F)cc2o1` [Example 19, (S)—N-(ethylsulfonyl)-2-(6-fluorobenzo[d]oxazol-2-yl)-6-methoxy-5-(phenoxymethyl)-1,2,3,4-tetrahydroisoquinoline-3-carboxamide] had an IC50 in series [1] of 25 nM. Further, the half-life at 1 µM in series [3] was 175 min.
